Results as given in PMC8179679 (Chemical Science, 2021).
Where no end group is shown, it is not given here.

How the values were obtained:
[1] = tested on: E5-p53TAD1/MDM2 interaction; conditions: for number of translocation events, % of free E5-p53TAD1 peptide: molar ratio 1 : 3 : 5; for number of translocation events N after inhibitor addition: molar ratio 1 : 3 : 5 (peptide : MDM2 : inhibitor), 10 min-current trace
[2] = biological target: aerolysin nanopore (Aeromonas hydrophila, UniProt P09167); assay: aerolysin nanopore single-channel recording of free analyte
Chain of aerolysin nanopore (P09167 24-445 limits assumed): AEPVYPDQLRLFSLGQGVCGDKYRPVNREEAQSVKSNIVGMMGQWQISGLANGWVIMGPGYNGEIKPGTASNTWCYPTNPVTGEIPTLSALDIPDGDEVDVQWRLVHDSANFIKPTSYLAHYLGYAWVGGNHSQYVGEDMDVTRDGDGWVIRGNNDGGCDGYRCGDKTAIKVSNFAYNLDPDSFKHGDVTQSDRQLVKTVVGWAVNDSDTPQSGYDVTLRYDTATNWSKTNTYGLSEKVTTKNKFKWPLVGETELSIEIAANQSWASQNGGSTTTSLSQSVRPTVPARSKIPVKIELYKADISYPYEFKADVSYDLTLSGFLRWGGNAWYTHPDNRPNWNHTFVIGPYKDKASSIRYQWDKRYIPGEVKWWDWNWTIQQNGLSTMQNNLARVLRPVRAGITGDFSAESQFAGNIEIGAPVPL

[3] = biological target: MDM2 (residues 3–109) (Homo sapiens, UniProt Q00987); assay: aerolysin nanopore detection of peptide/MDM2 interaction; format: binding
Chain of MDM2 (residues 3–109) (Q00987 3-109): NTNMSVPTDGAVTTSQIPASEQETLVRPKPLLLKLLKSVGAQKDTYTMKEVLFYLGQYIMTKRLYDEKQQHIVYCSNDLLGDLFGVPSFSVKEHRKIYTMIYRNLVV

[4] = tested on: MDM2; conditions: method not stated; cited from earlier work

In the case of `CC(C)[C@@H](CS(=O)(=O)C(C)C)N1C(=O)[C@@](C)(CC(=O)O)C[C@H](c2cccc(Cl)c2)[C@H]1c1ccc(Cl)cc1` [AMG232], the “number of translocation events, % of free E5-p53TAD1 peptide” value [1] is reported as ~99.8% and the “number of translocation events N after inhibitor addition” value [1] is reported as 1570.

With EEEEESQETFSDLWKLLPEN [E5-p53TAD1] the “number of nanopore events N” value ([2]; free E5-p53TAD1 peptide, 10 min-current trace) was 1573, the “dwell time of short-lived translocation / nanopore events” value ([2]; free peptide) was < 10^2 ms and the “mean dwell time td” value ([2]; free peptide, 140 mV, single exponential fit) was ~0.8 ms. The Kd [3] was 1.07 ± 0.09 µM and the “dwell time of extraordinarily long-lived current blockage” value ([3]; E5-p53TAD1/MDM2 complex, 140 mV) was 0.1 s ∼ tens of min.

In the case of `CN[C@@H](C)C(=O)N[C@H](C(=O)N1CCC[C@H]1c1nc(C(=O)c2ccc(F)cc2)cs1)C1CCCCC1` [LCL161], the “MDM2 binding (in words)” value [4] is listed as “does not bind to MDM2”.

With `COc1ccc(C2=N[C@@H](c3ccc(Cl)cc3)[C@@H](c3ccc(Cl)cc3)N2C(=O)N2CCNC(=O)C2)c(OC(C)C)c1` [Nutlin-3] the “number of translocation events, % of free E5-p53TAD1 peptide” value [1] was ~61.3% and the “number of translocation events N after inhibitor addition” value [1] was 965.
